# ChEMBL document CHEMBL1155149, “In vitro activities of 15 antimicrobial agents against 110 toxigenic clostridium difficile clinical isolates collected from 1983 to 2004” (2007)
# Test system: Clostridioides difficile
# Assay: Antimicrobial activity against Clostridium difficile clinical isolates by agar dilution method
# Assay type: functional
SMILES,MIC50 [µg/mL],MIC90 [µg/mL]
C[C@H]1COc2c(N3CCN(C)CC3)c(F)cc3c(=O)c(C(=O)O)cn1c23.C[C@H]1COc2c(N3CCN(C)CC3)c(F)cc3c(=O)c(C(=O)O)cn1c23.O [LEVOFLOXACIN],4,32
CCc1c(Cl)c(O)c(Cl)c(O)c1C(=O)O[C@H]1[C@H](O)[C@H](OC)[C@H](OC/C2=C\C=C\C[C@H](O)/C(C)=C/[C@H](CC)[C@@H](O[C@@H]3OC(C)(C)[C@@H](OC(=O)C(C)C)[C@H](O)[C@@H]3O)/C(C)=C/C(C)=C/C[C@@H]([C@@H](C)O)OC2=O)O[C@@H]1C [FIDAXOMICIN],0.125,0.125
CO[C@H]1/C=C/O[C@@]2(C)Oc3c(C)c(O)c4c(O)c(c5c(nc6cc(C)ccn65)c4c3C2=O)NC(=O)/C(C)=C\C=C\[C@H](C)[C@H](O)[C@@H](C)[C@@H](O)[C@@H](C)[C@H](OC(C)=O)[C@@H]1C [RIFAXIMIN],0.0075,0.015
CCS(=O)(=O)CCn1c([N+](=O)[O-])cnc1C [TINIDAZOLE],0.125,0.25
CO[C@H]1/C=C/O[C@@]2(C)Oc3c(C)c(O)c4c(=O)c(c5oc6cc(N7CCN(CC(C)C)CC7)cc(O)c6nc-5c4c3C2=O)NC(=O)/C(C)=C\C=C\[C@H](C)[C@H](O)[C@@H](C)[C@@H](O)[C@@H](C)[C@H](OC(C)=O)[C@@H]1C [RIFALAZIL],0.0075,0.03
C[C@@H](O)[C@H]1C(=O)N2C(C(=O)O)=C(S[C@@H]3CN[C@H](CNS(N)(=O)=O)C3)[C@H](C)[C@H]12 [DORIPENEM],1,2
O=C(Nc1ncc([N+](=O)[O-])s1)c1ccccc1O [TIZOXANIDE],0.06,0.125
COc1c(N2CCNC(C)C2)c(F)cc2c(=O)c(C(=O)O)cn(C3CC3)c12 (stereo unspecified) [GATIFLOXACIN],1,16
CN[C@H](CC(C)C)C(=O)N[C@H]1C(=O)N[C@@H](CC(N)=O)C(=O)N[C@H]2C(=O)N[C@H]3C(=O)N[C@H](C(=O)N[C@H](C(=O)O)c4cc(O)cc(O)c4-c4cc3ccc4O)[C@H](O)c3ccc(c(Cl)c3)Oc3cc2cc(c3O[C@@H]2O[C@H](CO)[C@@H](O)[C@H](O)[C@H]2O[C@H]2C[C@](C)(N)[C@H](O)[C@H](C)O2)Oc2ccc(cc2Cl)[C@H]1O [VANCOMYCIN],1,1
Cc1ncc([N+](=O)[O-])n1CCO [METRONIDAZOLE],0.125,0.25
CN(C)c1cc(NC(=O)CNC(C)(C)C)c(O)c2c1C[C@H]1C[C@H]3[C@H](N(C)C)C(O)=C(C(N)=O)C(=O)[C@@]3(O)C(O)=C1C2=O [TIGECYCLINE],0.125,0.25
C[C@@H](O)[C@H]1C(=O)N2C(C(=O)O)=C(S[C@@H]3CN[C@H](C(=O)N(C)C)C3)[C@H](C)[C@H]12 [MEROPENEM],2,2
CC(=O)Oc1ccccc1C(=O)Nc1ncc([N+](=O)[O-])s1 [NITAZOXANIDE],0.06,0.125
